PMC4850106 (Journal of medicinal chemistry, 2016)
pKi: −log10 of the molar value.

Key:
[1] = tested on: brain-like endothelial cells cocultured with pericytes; assay: In vitro human BBB cell-based model; format: in vitro ADME; conditions: cell-based BBB model, 200 µM, 2 h
[2] = In vitro human BBB cell-based model; format: in vitro ADME; conditions: human
BBB-PAMPA assay = format: in vitro ADME, porcine; conditions: 500 µM in donor, 4 h
neuropathic mice = conditions: neuropathic conditions ref 73; cited from earlier work
mice (C57BL6) = conditions: acute pain, increased dosing ref 73; cited from earlier work
Sprague–Dawley rats = assay: Respiratory effects by whole body plethysmography in rats; format: in vivo; conditions: iv, 13a 0.5 mg/kg, morphine 5 mg/kg
human NOP = human NOP (Homo sapiens, UniProt P41146); conditions: read-out: Ki for the human NOP; cited from earlier work
human NOP, sequence (P41146 whole entry): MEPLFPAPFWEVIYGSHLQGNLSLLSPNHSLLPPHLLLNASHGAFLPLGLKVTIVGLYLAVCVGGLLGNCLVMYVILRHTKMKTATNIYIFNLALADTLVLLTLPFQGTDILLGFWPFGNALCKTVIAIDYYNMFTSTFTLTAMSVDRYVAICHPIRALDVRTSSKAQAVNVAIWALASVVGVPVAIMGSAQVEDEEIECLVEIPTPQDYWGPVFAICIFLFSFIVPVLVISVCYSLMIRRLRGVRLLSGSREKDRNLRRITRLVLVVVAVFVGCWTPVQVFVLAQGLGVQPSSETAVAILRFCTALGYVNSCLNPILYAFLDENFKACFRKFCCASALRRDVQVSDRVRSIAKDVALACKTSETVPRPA

Q: For `CC[C@H](C)[C@H](NC(=O)[C@H](CCCN=C(N)N)NC(=O)[C@H](Cc1ccc(O)cc1)NC(=O)[C@H](Cc1ccc(O)cc1)NC(=O)[C@H](CCCN=C(N)N)NC(C)=O)C(=O)N[C@@H](CCCCN)C(N)=O` [compound 8, Ac-Arg-Tyr-Tyr-Arg-Ile-Lys-NH2], which “mass balance (%)” value [1] is on record?
A: The value was 95%.

Q: What about the “transport (%)” value [1] of the same compound?
A: Its value is 14%.

Q: What about the Papp A→B at 2 h, 200 µM [2] of the same compound?
A: The Papp A→B at 2 h, 200 µM was 8.4 ×10⁻⁶ cm/s.

Q: What about the “transport (%)” value (BBB-PAMPA assay) of the same compound?
A: The value was 0.15%.

Q: With `CN1CC[C@]23c4c5ccc(O)c4O[C@H]2[C@@H](O)C=C[C@H]3[C@H]1C5` [morphine] as the compound, how does the “sustained %MPE no matter how high the dose” value (neuropathic mice) read?
A: Its value is “about 50 %MPE”.

Q: And the “%MPE in tail-flick test upon increased dosing” value (mice (C57BL6))?
A: The value was 100 %MPE.

Q: And the inspiratory time (Sprague–Dawley rats)?
A: The inspiratory time was “significant increase in inspiratory time”.

Q: What about the respiratory frequency (Sprague–Dawley rats) of the same compound?
A: Its respiratory frequency is “decrease in respiratory frequency”.

Q: What about the “respiratory depression (ventilation minute)” value (Sprague–Dawley rats; vs saline, AUC) of the same compound?
A: Its value is “deleterious effect”.

Q: With “Ac-Arg-Tyr-Tyr-Arg-Trp-Arg-NH2 (Ac-RYYRWR-NH2)” as the compound, how does the pKi (human NOP) read?
A: The pKi was 10.00.
